Assay results reported in US20090291977A1, “Chromane Derivatives Useful As Acid Pump Antagonists” (priority 2004, published 2009).

Biological target: T1, Porcine gastric H+/K+-ATPase (Sus scrofa, UniProt P19156)
T1 construct: The gastric vesicles were collected from interface on 0.25 M sucrose layer containing 7% Ficoll; from tissue; host or cells: mucous membrane of fresh porcine stomachs (gastric vesicles)
Experiment: Ion-leaky porcine gastric H+/K+-ATPase inhibition
Format: biochemical
Conditions: ion-leaky vesicles, 5 mM KCl, pH 6.4, 37° C., 30 minutes
Method: The porcine gastric vesicles for Porcine gastric H^+/K^+-ATPase inhibition assays were prepared from mucous membrane in fresh porcine stomachs by homogenization with a tight-fitted polytetrafluoroethylene (Teflone®) homogenizer in 0.25 M sucrose at 4° C. The crude pellet was removed with centrifugation at 20,000 g for 30 min. Then supernatant was centrifuged at 100,000 g for 30 min. The resulting pellet was re-suspended in 0.25 M sucrose, and then subjected to density gradient centrifugation at 132,000 g for 90 min. The gastric vesicles were collected from interface on 0.25 M sucrose layer containing 7% Ficoll™ PM400(Amersham Biosciences). This procedure was performed in a cold room.
Ion-leaky porcine gastric H^+/K^+-ATPase-inhibition was measured according to the modified method described in Biochemical Pharmacology, 1988, 37, 2231-2236.
The isolated vesicles were lyophilized, and then kept in deep-freezer until use. For enzyme assay, lyophilized vesicles were reconstituted with 3 mM MgSO4 containing 40 mM Bis-tris (pH 6.4 at 37° C.).
Enzyme reaction was performed incubating 5 mM KCl, 3 mM Na2ATP, 3 mM MgSO4 and 1.0 μg of reconstituted vesicles for 30 minutes at 37° C. in a final 60 μl of reaction mixture (40 mM Bis-tris, pH 6.4) with or without the test compound. Enzyme reaction was stopped by adding 10% sodium dodecyl sulphate (SDS). Released inorganic phosphate from ATP was detected by incubation with mixture of 1 part of 35 mM ammonium molybdate tetrahydrate in 15 mM Zinc acetate hydrate and 4 parts of 10% ascorbic acid (pH 5.0), resulting in phosphomolybdate, which has optical density at 750 nm.

T1 sequence (P19156 2-1034 limits assumed): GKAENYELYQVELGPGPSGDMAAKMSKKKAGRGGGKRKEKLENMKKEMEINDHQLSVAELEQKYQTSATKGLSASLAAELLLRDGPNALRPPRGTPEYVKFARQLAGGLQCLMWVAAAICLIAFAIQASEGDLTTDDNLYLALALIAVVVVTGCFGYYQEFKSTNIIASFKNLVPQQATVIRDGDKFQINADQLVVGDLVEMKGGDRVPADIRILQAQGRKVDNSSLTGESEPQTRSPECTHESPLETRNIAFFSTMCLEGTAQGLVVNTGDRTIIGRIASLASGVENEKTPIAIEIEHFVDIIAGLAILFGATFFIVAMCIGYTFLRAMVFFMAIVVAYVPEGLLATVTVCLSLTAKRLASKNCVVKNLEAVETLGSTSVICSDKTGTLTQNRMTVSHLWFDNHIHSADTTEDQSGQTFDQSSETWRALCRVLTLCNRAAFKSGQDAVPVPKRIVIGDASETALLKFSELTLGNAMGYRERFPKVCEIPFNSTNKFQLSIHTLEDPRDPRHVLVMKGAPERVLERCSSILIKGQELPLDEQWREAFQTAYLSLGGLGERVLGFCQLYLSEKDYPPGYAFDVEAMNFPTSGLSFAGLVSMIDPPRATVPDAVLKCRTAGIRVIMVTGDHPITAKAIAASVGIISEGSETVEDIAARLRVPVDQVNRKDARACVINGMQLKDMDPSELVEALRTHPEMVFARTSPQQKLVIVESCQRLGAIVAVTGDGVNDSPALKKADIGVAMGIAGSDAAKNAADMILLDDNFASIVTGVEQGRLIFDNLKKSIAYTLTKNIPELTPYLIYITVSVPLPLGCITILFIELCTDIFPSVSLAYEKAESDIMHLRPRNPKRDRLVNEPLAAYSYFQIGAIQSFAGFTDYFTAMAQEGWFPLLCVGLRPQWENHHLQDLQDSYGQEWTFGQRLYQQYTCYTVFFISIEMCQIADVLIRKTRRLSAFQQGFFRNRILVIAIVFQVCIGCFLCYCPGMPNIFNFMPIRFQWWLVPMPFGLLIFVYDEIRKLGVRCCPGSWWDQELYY
T1 sequence (P18434 whole entry partner): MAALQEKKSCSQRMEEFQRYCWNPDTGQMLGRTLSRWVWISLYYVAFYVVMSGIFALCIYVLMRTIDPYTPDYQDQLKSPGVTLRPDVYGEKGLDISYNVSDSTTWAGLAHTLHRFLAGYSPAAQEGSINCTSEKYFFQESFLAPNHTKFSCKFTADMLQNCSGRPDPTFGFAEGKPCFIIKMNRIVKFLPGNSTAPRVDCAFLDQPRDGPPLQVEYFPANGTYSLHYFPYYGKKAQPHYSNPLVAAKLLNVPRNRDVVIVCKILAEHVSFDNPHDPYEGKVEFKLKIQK

| Structure (SMILES) | IC50 [nM] |
| --- | --- |
| Cc1nc2c(NC3COCc4ccccc43)cc(C(=O)N(C)CCO)cn2c1C (racemic) [Example 4-1, 8-(3,4-Dihydro-1H-isochromen-4-ylamino)-N-(2-hydroxyethyl)-N,2,3-trimethylimidazo[1,2-a]pyridine-6-carboxamide] | 87.1 |
| Cc1cccc2c1C(Nc1cc(C(=O)N(C)C)cn3c(C)c(C)nc13)CCO2 (racemic) [Example 17-1, N,N,2,3-Tetramethyl-8-[(5-methyl-3,4-dihydro-2H-chromen-4-yl)amino]imidazo[1,2-a]pyridine-6-carboxamide] | 64 |
| Cc1nc2c(NC3CCOc4ccc(F)cc43)cc(C(=O)N(C)C)cn2c1C (single isomer, unassigned) [Example 12-2, 8-[(6-Fluoro-3,4-dihydro-2H-chromen-4-yl)amino]-N,N,2,3-tetramethylimidazo[1,2-a]pyridine-6-carboxamide] | 197 |
| Cc1nc2c(NC3CCOc4c(F)cccc43)cc(C(=O)N(C)C)cn2c1C (racemic) [Example 14-1, 8-[(8-Fluoro-3,4-dihydro-2H-chromen-4-yl)amino]-N,N,2,3-tetramethylimidazo[1,2-a]pyridine-6-carboxamide] | 294 |
| Cc1nc2c(NC3CCOc4cc(F)cc(F)c43)cc(C(=O)N(C)C)cn2c1C (single isomer, unassigned) [Example 8-2, 8-[(5,7-Difluoro-3,4-dihydro-2H-chromen-4-yl)amino]-N,N,2,3-tetramethylimidazo[1,2-a]pyridine-6-carboxamide] | 23 |
| Cc1nc2c(NC3CCOc4cccc(F)c43)cc(C(=O)N(C)C)cn2c1C (racemic) [Example 10-1, 8-[(5-Fluoro-3,4-dihydro-2H-chromen-4-yl)amino]-N,N,2,3-tetramethylimidazo[1,2-a]pyridine-6-carboxamide] | 75.1 |
| Cc1nc2c(NC3CCOc4cccc(Cl)c43)cc(C(=O)N(C)C)cn2c1C (racemic) [Example 18-1, 8-[(5-Chloro-3,4-dihydro-2H-chromen-4-yl)amino]-N,N,2,3-tetramethylimidazo[1,2-a]pyridine-6-carboxamide] | 350 |
| Cc1nc2c(NC3CCOc4c(F)cccc43)cc(C(=O)N(C)CCO)cn2c1C (single isomer, unassigned) [Example 15-3, 8-[(8-Fluoro-3,4-dihydro-2H-chromen-4-yl)amino]-N-(2-hydroxyethyl)-N,2,3-trimethylimidazol[1,2-a]pyridine-6-carboxamide] | 370 |
| Cc1nc2c(NC3CCOc4ccccc43)cc(C(=O)N(C)CCO)cn2c1C (single isomer, unassigned; (-)) [Example 2-2, (−)-8-(3,4-Dihydro-2H-chromen-4-ylamino)-N-(2-hydroxyethyl)-N,2,3-trimethylimidazo[1.2-a]pyridine-6-carboxamide] | 81.1 |
| Cc1nc2c(NC3CCOc4ccc(F)cc43)cc(C(=O)N(C)CCO)cn2c1C (single isomer, unassigned) [Example 13-3, 8-[(6-Fluoro-3,4-dihydro-2H-chromen-4-yl)amino]-N-(2-hydroxyethyl)-N,2,3-trimethylimidazol[1,2-a]pyridine-6-carboxamide] | 170 |
| Cc1nc2c(NC3CCOc4cccc(Cl)c43)cc(C(=O)N(C)CCO)cn2c1C (single isomer, unassigned) [Example 19-2, 8-[(5-Chloro-3,4-dihydro-2H-chromen-4-yl)amino]-N-(2-hydroxyethyl)-N,2,3-trimethylimidazo[1,2-a]pyridine-6-carboxamide] | 600 |
| Cc1nc2c(NC3COCc4ccccc43)cc(C(=O)N(C)CCO)cn2c1C (single isomer, unassigned; (-)) [Example 4-2, (−)-8-(3,4-Dihydro-1H-isochromen-4-ylamino)-N-(2-hydroxyethyl)-N,2,3-trimethylimidazo[1,2-a]pyridine-6-carboxamide] | 273 |
| Cc1nc2c(NC3CCOc4ccc(F)cc43)cc(C(=O)N(C)CCO)cn2c1C (racemic) [Example 13-1, 8-[(6-Fluoro-3,4-dihydro-2H-chromen-4-yl)amino]-N-(2-hydroxyethyl)-N,2,3-trimethylimidazol[1,2-a]pyridine-6-carboxamide] | 250 |
| Cc1nc2c(NC3CCOc4cc(F)ccc43)cc(C(=O)N(C)CCO)cn2c1C (racemic) [Example 7-1, 8-[(7-Fluoro-3,4-dihydro-2H-chromen-4-yl)amino]-N-(2-hydroxyethyl)-N,2,3-trimethylimidazol[1,2-a]pyridlne-6-carboxamide] | 26.6 |
| Cc1nc2c(NC3CCOc4ccc(F)cc43)cc(C(=O)N(C)CCO)cn2c1C (single isomer, unassigned) [Example 13-2, 8-[(6-Fluoro-3,4-dihydro-2H-chromen-4-yl)amino]-N-(2-hydroxyethyl)-N,2,3-trimethylimidazol[1,2-a]pyridine-6-carboxamide] | 1100 |
| Cc1nc2c(NC3CCOc4cccc(Cl)c43)cc(C(=O)N(C)C)cn2c1C (single isomer, unassigned) [Example 18-2, 8-[(5-Chloro-3,4-dihydro-2H-chromen-4-yl)amino]-N,N,2,3-tetramethylimidazo[1,2-a]pyridine-6-carboxamide] | 300 |
| Cc1nc2c(NC3CCOc4cccc(F)c43)cc(C(=O)N(C)C)cn2c1C (single isomer, unassigned) [Example 10-2, 8-[(5-Fluoro-3,4-dihydro-2H-chromen-4-yl)amino]-N,N,2,3-tetramethylimidazo[1,2-a]pyridine-6-carboxamide] | 51.1 |
| Cc1cccc2c1C(Nc1cc(C(=O)N(C)CCO)cn3c(C)c(C)nc13)CCO2 (racemic) [Example 5-1, N-(2-Hydroxyethyl)-N,2,3-trimethyl-8-[(5-methyl-3,4-dihydro-2H-chromen-4-yl)amino]imidazo[1,2-a]pyridine-6-carboxamide] | 94.7 |
| Cc1nc2c(NC3CCOc4c(F)cccc43)cc(C(=O)N(C)C)cn2c1C (single isomer, unassigned) [Example 14-2, 8-[(8-Fluoro-3,4-dihydro-2H-chromen-4-yl)amino]-N,N,2,3-tetramethylimidazo[1,2-a]pyridine-6-carboxamide] | 120 |
| Cc1ccc2c(c1)OCCC2Nc1cc(C(=O)N(C)CCO)cn2c(C)c(C)nc12 (single isomer, unassigned) [Example 16-3, N-(2-Hydroxyethyl)-N,2,3-trimethyl-8-[(7-methyl-3,4-dihydro-2H-chromen-4-yl)amino]imidazo[1,2-a]pyridine-6-carboxamide] | 180 |
| Cc1nc2c(NC3CCOc4cc(F)cc(F)c43)cc(C(=O)N(C)CCO)cn2c1C (racemic) [Example 9-1, 8-[(5,7-Difluoro-3,4-dihydro-2H-chromen-4-yl)amino]-N-(2-hydroxyethyl)-N,2,3-trimethylimidazo[1,2-a]pyridine-6-carboxamide] | 50 |
| Cc1ccc2c(c1)OCCC2Nc1cc(C(=O)N(C)CCO)cn2c(C)c(C)nc12 (racemic) [Example 16-1, N-(2-Hydroxyethyl)-N,2,3-trimethyl-8-[(7-methyl-3,4-dihydro-2H-chromen-4-yl)amino]imidazo[1,2-a]pyridine-6-carboxamide] | 331 |
| Cc1nc2c(NC3CCOc4cc(F)ccc43)cc(C(=O)N(C)C)cn2c1C (single isomer, unassigned) [Example 6-3, 8-[(7-Fluoro-3,4,dihydro-2H-chromen-4-yl)amino]-N,N,2,3-tetramethylimidazo[1,2-a]pyridine-6-carboxamide] | 15.7 |
| Cc1nc2c(NC3CCOc4ccccc43)cc(C(=O)N(C)CCO)cn2c1C (racemic) [Example 2-1, 8-(3,4-Dihydro-2H-chromen-4-ylamino)-N-(2-hydroxyethyl)-N,2,3-trimethylimidazo[1,2-a]pyridine-6-carboxamide] | 49.7 |
| Cc1nc2c(NC3CCOc4cccc(F)c43)cc(C(=O)N(C)C)cn2c1C (single isomer, unassigned) [Example 10-3, 8-[(5-Fluoro-3,4-dihydro-2H-chromen-4-yl)amino]-N,N,2,3-tetramethylimidazo[1,2-a]pyridine-6-carboxamide] | 91 |
| Cc1nc2c(NC3CCOc4c(F)cccc43)cc(C(=O)N(C)CCO)cn2c1C (racemic) [Example 15-1, 8-[(8-Fluoro-3,4-dihydro-2H-chromen-4-yl)amino]-N-(2-hydroxyethyl)-N,2,3-trimethylimidazol[1,2-a]pyridine-6-carboxamide] | 40.9 |
| Cc1nc2c(NC3CCOc4c(F)cccc43)cc(C(=O)N(C)CCO)cn2c1C (single isomer, unassigned) [Example 15-2, 8-[(8-Fluoro-3,4-dihydro-2H-chromen-4-yl)amino]-N-(2-hydroxyethyl)-N,2,3-trimethylimidazol[1,2-a]pyridine-6-carboxamide] | 230 |
| Cc1nc2c(NC3CCOc4cc(F)cc(F)c43)cc(C(=O)N(C)CCO)cn2c1C (single isomer, unassigned) [Example 9-2, 8-[(5,7-Difluoro-3,4-dihydro-2H-chromen-4-yl)amino]-N-(2-hydroxyethyl)-N,2,3-trimethylimidazo[1,2-a]pyridine-6-carboxamide] | 15.9 |
